In patent publication US7820811B2, “Pro-drugs of adenosine receptor agonists” (CBT Development Limited, priority 2006, dated 2010):

Legend:
[1] = oral administration; cited from earlier work
[2] = system: rat adjuvant model of arthritis; assay: rat adjuvant model of arthritis, analgesic relief; format: in vivo
adenosine A2A receptor = adenosine A2A receptor (UniProt P30543); assay: EC50 at the adenosine A2A receptor; format: biochemical
From the text: For the avoidance of doubt, the EC50 value of a compound is defined herein as the concentration of the compound that provokes a receptor response halfway between the baseline receptor response and the maximum receptor response (as determined, for example, using a dose-response curve).
The EC50 value should be determined under standard conditions (balanced salt solutions buffered to pH 7.4). For EC50 determinations using isolated membranes, cells and tissues this would be in buffered salt solution at pH 7.4 (e.g. cell culture medium), for example as in Daly et al., Pharmacol. (1993) 46, 91-100), or preferably as in Tilburg et al (J. Med. Chem. (2002) 45, 91-100). The EC50 could also be determined in vivo by measuring adenosine receptor mediated responses in a normal healthy animal, or even in a tissue perfused under normal conditions (i.e. oxygenated blood, or oxygenated isotonic media, also buffered at pH 7.4) in a normal healthy animal.

[3] = system: streptozocin-induced diabetic neuropathy; assay: streptozocin-induced diabetic neuropathy, static allodynia (von Frey hairs); format: in vivo, rats
Procedure: Diabetes was induced by a single i.p. injection of 50 mg/kg streptozocin (Sigma, 50 mg/ml/kg in citrate buffered saline 33 mM pH 4.5). Control animals received single i.p. injection of citrate buffered saline. […] Static allodynia was assessed using von Frey hairs and the paw withdrawal threshold (PWT) in grams (symbols represent the median and vertical bars represent the first and third quartiles) is indicated.

[4] = system: carageenan-induced oedema in a rat paw; conditions: rats, 20 mg/kg po; cited from earlier work
[5] = 20 mg/kg po; cited from earlier work
[6] = system: U937 human macrophage cells; conditions: cited from earlier work
[7] = cynamalogous monkeys, cited from earlier work
[8] = monkey, multiple oral dosing, 14C-labelled; cited from earlier work

## CC(C)[C@H](N)C(=O)OCCOCn1cnc2c(=O)[nH]c(N)nc21 [Valacyclovir]
[1]
  urinary excretion of Acyclovir: 63%

## COc1nc(N)c2ncn([C@@H]3O[C@H](CO)[C@@H](O)[C@H]3O)c2n1 [spongosine, 2-methoxyadenosine]
[2]
  minimum plasma concentration giving maximal analgesic relief: 0.06 µM
Adenosine A2A receptor
  EC50: ~1000 nM
[3]; 2.1 mg/kg dose cohort at 2, 3 and 4 hours
  alleviation of allodynia at late time points: Significant alleviation of allodynia was still evident
[3]; 0.6-2.1 mg/kg, po, STZ rats, PWT
  dose dependence of reversal of streptozocin induced static allodynia: dose dependant effects
[3]; all doses 0.6-2.1 mg/kg po, STZ rats, PWT
  reversal of static allodynia, all doses: effective at reversing allodynia
[3]; top dose (2.1 mg/kg po), versus naïve non-streptozocin injected controls
  reversal of static allodynia, top dose: fully reversed the allodynia
[4]
  inhibition of carageenan-induced inflammation: 25%
[5]
  reduction in heart rate: 25%
  reduction in mean blood pressure: 41%
[6]
  phorbol ester induced TNF alpha release: reduce phorbol ester induced TNF alpha release

## Nc1ccn([C@@H]2C[C@@H](O)[C@H](CO)O2)c(=O)n1 [2′-deoxy-β-L-cytidine]
[7]; oral
  oral bioavailability (of 2′-deoxy-β-L-cytidine): 18%
[7]; po
  half-life (po): 2.95 h

## N=C(N)c1ncn([C@@H]2O[C@H](CO)[C@@H](O)[C@H]2O)n1 [Viramidine]
[8]
  drug level in red blood cells compared to Ribavarin: only half
  drug level in the liver compared to Ribavarin: three times

## Nc1nc2c(ncn2COCCO)c(=O)[nH]1 [Acyclovir]
[1]
  urinary excretion of Acyclovir: 19%
